From ChEMBL document CHEMBL1146398, “Cardenolides from the methanolic extract of Nerium oleander leaves possessing central nervous system depressant activity in mice” (J Nat Prod, 1997) come the findings set out here.

Common to all, as to type: functional, organism-based
Assay [1] deals with Mus musculus. The assay is described as follows: Central nervous system depression activity in mouse assessed as decrease in locomotor activity at 25 mg/kg, ip. Further details: dose 25 mg/kg.
Assay [2] concerns Mus musculus. In words: Central nervous system depression activity in mouse assessed as decrease in locomotor activity at 50 mg/kg, ip. Further details: dose 50 mg/kg.
Assay [3] concerns Mus musculus. The assay is described as follows: Central nervous system depression activity in mouse assessed as decrease in touch response at 25 mg/kg, ip. Further details: dose 25 mg/kg.
Assay [4] deals with Mus musculus. In words: Central nervous system depression activity in mouse assessed as ptosis at 25 mg/kg, ip. Further details: dose 25 mg/kg.
In assay [5] the test system is Mus musculus. The assay is described as follows: Central nervous system depression activity in mouse assessed as staggering gait at 25 mg/kg, ip. Further details: dose 25 mg/kg.
For assay [6], the system named is Mus musculus. The assay is described as follows: Central nervous system depression activity in mouse assessed as passivity at 25 mg/kg, ip. Further details: dose 25 mg/kg.
The test system of assay [7] is Mus musculus. In words: Central nervous system depression activity in mouse assessed as staggering gait at 25 mg/kg, ip after 30 mins. Further details: dose 25 mg/kg.
For assay [8], the system named is Mus musculus. In words: Central nervous system depression activity in mouse assessed as fast respiration at 50 mg/kg, ip after 40 mins. Further details: dose 50 mg/kg.
Assay [9] relates to Mus musculus. In words: Central nervous system depression activity in mouse assessed as abduction of limbs at 50 mg/kg, ip after 60 mins. Further details: dose 50 mg/kg.
Assay [10] deals with Mus musculus. The assay is described as follows: Central nervous system depression activity in mouse assessed as tremors on movement at 50 mg/kg, ip after 60 mins. Further details: dose 50 mg/kg.
Assay [11] deals with Mus musculus. The assay is described as follows: Central nervous system depression activity in mouse assessed as induction of passivity at 50 mg/kg, ip after 60 mins. Further details: dose 50 mg/kg.
The subject of assay [12] is Mus musculus. In words: Central nervous system depression activity in mouse assessed as decrease in body and limb tone at 50 mg/kg, ip after 60 mins. Further details: dose 50 mg/kg.
The subject of assay [13] is Mus musculus. In words: Central nervous system depression activity in mouse assessed as decrease in touch response at 50 mg/kg, ip. Further details: dose 50 mg/kg.
The test system of assay [14] is Mus musculus. In words: Central nervous system depression activity in mouse assessed as staggering gait at 50 mg/kg, ip after 40 mins. Further details: dose 50 mg/kg.

The structures appear in SMILES notation. The source made the active and inactive calls. The rule behind the calls is not given here.

For `CO[C@H]1[C@@H](O)[C@@H](C)O[C@@H](O[C@H]2CC[C@@]3(C)[C@H](CC[C@@H]4[C@@H]3CC[C@]3(C)[C@@H](C5=CC(=O)OC5)CC[C@]43O)C2)[C@@H]1O`, the result in assay [1], in assay [2], in [3], in assay [4], in assay [5] and in assay [6] was Active.

As for `CO[C@H]1[C@@H](O)[C@@H](C)O[C@@H](O[C@H]2CC[C@@]3(C)[C@H](CC[C@@H]4[C@@H]3CC[C@]3(C)[C@@H](C5=CC(=O)OC5)[C@@H](OC(C)=O)C[C@]43O)C2)[C@@H]1O`, the outcome in [2], in [7], in [8], in [9], in assay [10] and in assay [11] was Active. The outcome in assay [12] was Active. In addition, the outcome in [3] was inactive.

`CO[C@H]1[C@H](O[C@H]2CC[C@@]3(C)[C@H](CC[C@@H]4[C@@H]3CC[C@]3(C)C(C5=CC(=O)OC5)=CC[C@]43O)C2)O[C@H](C)[C@H](O)[C@@H]1OC`: the result in [1], in assay [2], in assay [13] and in assay [14] was Active. Further, the outcome in [3] was inactive.
